Data reported in ChEMBL document CHEMBL1201862, “PubChem BioAssay data set” (2004).
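Results reflect a 48-hour exposure of cells in 96-well plates to compound at five concentrations. GI50 is the concentration that inhibits growth by half.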 Activity calls are given as the source filed them. No stated cut-off is given here; in the data, active = GI50 up to about 1.1 µM and inactive = higher.

Assays:
Assay in all cases: growth of human tumour cells (NCI), 48 h
KM-20L2 = tested on: KM-20L2
TK-10 = tested on: TK-10
NCI-H23 = tested on: NCI-H23
DMS-273 = tested on: DMS-273
SR = tested on: SR
SK-MEL-5 = tested on: SK-MEL-5
RPMI-8226 = tested on: RPMI-8226
M14 = tested on: M14
SNB-19 = tested on: SNB-19
OVCAR-8 = tested on: OVCAR-8
A498 = tested on: A498
SN12C = tested on: SN12C
HOP-18 = tested on: HOP-18
K562 = tested on: K562
M19-MEL = tested on: M19-MEL
HOP-92 = tested on: HOP-92
KM12 = tested on: KM12

Compound	GI50 (KM-20L2)	GI50 (TK-10)	GI50 (NCI-H23)	GI50 (DMS-273)	GI50 (SR)	GI50 (SK-MEL-5)	GI50 (RPMI-8226)	GI50 (M14)	GI50 (SNB-19)	GI50 (OVCAR-8)	GI50 (A498)	GI50 (SN12C)	GI50 (HOP-18)	GI50 (K562)	GI50 (M19-MEL)	GI50 (HOP-92)	GI50 (KM12)
COc1ccc(/C(Cl)=C(\C=O)c2ccc(OC)cc2)cc1	> 100 µM (inactive)	> 100 µM (inactive)	> 100 µM (inactive)	37 µM (inactive)	10.8 µM (inactive)	> 100 µM (inactive)	37.9 µM (inactive)	> 100 µM (inactive)	> 100 µM (inactive)	59.4 µM (inactive)	> 100 µM (inactive)	> 100 µM (inactive)	63.8 µM (inactive)	63 µM (inactive)	93.3 µM (inactive)	–	–
CC1OC(O)CC(OC(=O)c2ccccc2)C1OC(=O)c1ccccc1 (configuration not stated)	66.2 µM (inactive)	> 100 µM (inactive)	16 µM (inactive)	14.5 µM (inactive)	13.2 µM (inactive)	16.7 µM (inactive)	8.18 µM (inactive)	16.7 µM (inactive)	90.4 µM (inactive)	15.7 µM (inactive)	> 100 µM (inactive)	17.3 µM (inactive)	26.3 µM (inactive)	16.8 µM (inactive)	17.5 µM (inactive)	20 µM (inactive)	39.6 µM (inactive)
O=C(Nc1ccccc1Br)c1cccc([N+](=O)[O-])c1O	4.09 µM (inactive)	1.54 µM (inactive)	2.5 µM (inactive)	3.53 µM (inactive)	4.51 µM (inactive)	2.16 µM (inactive)	1.52 µM (inactive)	4.32 µM (inactive)	3.81 µM (inactive)	4.16 µM (inactive)	2.49 µM (inactive)	3.94 µM (inactive)	1.66 µM (inactive)	3.13 µM (inactive)	2.51 µM (inactive)	1.63 µM (inactive)	4.26 µM (inactive)
CC(=O)OC1=C2CC3(C)OC(=O)CC(C)(C)C3=CC=C2C=C(C(C)C)C1=O (configuration not stated)	1.62 µM (inactive)	1.21 µM (inactive)	0.42 µM (active)	0.916 µM (active)	0.278 µM (active)	0.826 µM (active)	0.22 µM (active)	0.334 µM (active)	1.83 µM (inactive)	0.288 µM (active)	1.57 µM (inactive)	0.684 µM (active)	1.16 µM (inactive)	0.307 µM (active)	0.526 µM (active)	0.207 µM (active)	1.15 µM (inactive)
CCc1ccc(Nc2cc(=O)[nH]c(=S)n2C)cc1	> 100 µM (inactive)	> 100 µM (inactive)	> 100 µM (inactive)	> 100 µM (inactive)	> 100 µM (inactive)	> 100 µM (inactive)	> 100 µM (inactive)	> 100 µM (inactive)	> 100 µM (inactive)	> 100 µM (inactive)	> 100 µM (inactive)	> 100 µM (inactive)	> 100 µM (inactive)	> 100 µM (inactive)	> 100 µM (inactive)	> 100 µM (inactive)	> 100 µM (inactive)
CNc1ccccc1-c1nc2ccccc2c(=O)o1	> 100 µM (inactive)	> 100 µM (inactive)	–	> 100 µM (inactive)	> 100 µM (inactive)	> 100 µM (inactive)	> 100 µM (inactive)	> 100 µM (inactive)	> 100 µM (inactive)	> 100 µM (inactive)	–	> 100 µM (inactive)	> 100 µM (inactive)	> 100 µM (inactive)	> 100 µM (inactive)	–	> 100 µM (inactive)
